Where “and” joins values, the source holds several entries; their conditions need not be identical. Identical values can stand only once.
How the values were obtained:
Format in all cases: cell-based, mouse
[1] = test system: Purkinje cells in cerebellar slices from mGlu1^+/+ mice; experiment: chemLTD recording (PF-EPSC) in Purkinje cells of acute cerebellar slices, mGlu1^+/+ mice; conditions: for PF-EPSC amplitude relative to time 0: mGlu1+/+, individual cells
Protocol: (§1) Sagittal cerebellar slices were cut with a microslicer (Linear slicer Pro7; DOSAKA EM) in cutting solution buffer and then incubated in ACSF gassed with 5% CO2 and 95% O2 at room temperature.
(§2) Whole-cell patch-clamp recordings were made from visually identified Purkinje cells using a 60× water-immersion objective attached to an upright microscope (BX51WI, Olympus) at room temperature, as described previously. […] Picrotoxin (100 µM; Sigma) was always added to the saline to block inhibitory synaptic transmission.
(§3) To evoke EPSCs derived from CF (CF-EPSCs) and PF (PF-EPSCs) inputs onto Purkinje cells, square pulses were applied through a stimulating electrode placed on the granular layer and the molecular layer (50 µm away from the pial surface), respectively. The selective stimulation of CFs and PFs was confirmed by the paired-pulse depression (PPD) and paired-pulse facilitation (PPF) of EPSC amplitudes at a 50-ms interstimulus interval (ISI), respectively.
(§4) For the LTD sessions, PF-EPSCs were recorded successively at a frequency of 0.1 Hz from Purkinje cells clamped at –80 mV. After a stable PF-EPSC amplitude had been observed for at least 5 min, a conjunctive stimulation that consisted of 30 single PF stimuli together with a 200 ms depolarizing pulse from a holding potential of –60 to +20 mV was applied for LTD induction.
(§5) To chemically induce LTD (chemLTD), 50 µM (S)-3,5-dihydroxyphenylglycine (DHPG) or 1 µM Pd(sulfo-bpy) was applied for 10 min in a current-clamp mode. We often observed a transient decrease in PF-EPSC amplitude after the application of each drug probably because Purkinje cells under current-clamp conditions excite spontaneously to suppress presynaptic function through the retrograde signaling. Access resistances were monitored every 10 s by measuring the peak currents in response to 2 mV, 50-ms hyperpolarizing steps throughout the experiments; the measurements were discarded if the resistance changed by >20% of its original value. The normalized EPSC amplitude on the ordinate represents the EPSC amplitude for the average of six traces for 1 min divided by that of the average of six traces for 1 min immediately before the conjunctive stimulation or the drug application.

[2] = test system: Purkinje cells in cerebellar slices from mGlu1^CBC/+ mice; experiment: chemLTD recording (PF-EPSC) in Purkinje cells of acute cerebellar slices, mGlu1^CBC/+ mice; conditions: for PF-EPSC amplitude relative to time 0: mGlu1CBC/+, individual cells
Protocol: as §1, §2, §3, §4, §5

[3] = test system: GFP-positive Purkinje cells infected with AAV-L7-mGlu1^WT; experiment: chemLTD recording in GFP-positive Purkinje cells, slices infected with AAV-L7-mGlu1^WT; conditions: for PF-EPSC amplitude normalized to time 0, individual Purkinje cells / PF-EPSC amplitude normalized to time 0, mean of cells: AAV-L7-mGlu1WT
[4] = 1 μM Pd(sulfo-bpy) for 10 min, t = 31−35 min

## Cc1ccnc(-c2cc(COCCCS(=O)(=O)[O-])ccn2)c1.[Cl][Pd][Cl].[Na+] [Pd(sulfo-bpy)]
[1]; [4]
  chemLTD: normalized PF-EPSC amplitude: 99 ± 4%
[1]; time 11 min
  PF-EPSC amplitude relative to time 0: 1.305 and 0.7371 and 0.3878 and 0.9487 and 0.6362 and 1.191 and 0.6572 and 0.79
[1]; time 12 min
  PF-EPSC amplitude relative to time 0: 1.203 and 0.9018 and 0.4484 and 1.074 and 0.6455 and 1.19 and 0.9598 and 0.8251
[1]; time 13 min
  PF-EPSC amplitude relative to time 0: 1.075 and 1.089 and 0.5282 and 1.162 and 0.6836 and 1.016 and 0.9614 and 0.7972
[1]; time 14 min
  PF-EPSC amplitude relative to time 0: 1.127 and 1.131 and 0.639 and 1.08 and 0.8118 and 0.8848 and 0.8669 and 0.886
[1]; time 15 min
  PF-EPSC amplitude relative to time 0: 0.8966 and 0.8928 and 0.5282 and 1.038 and 0.8059 and 0.9429 and 0.8907 and 0.8537
[1]; time 16 min
  PF-EPSC amplitude relative to time 0: 1.016 and 0.9829 and 0.5855 and 1.115 and 0.7312 and 0.9396 and 0.9005 and 0.8573
[1]; time 17 min
  PF-EPSC amplitude relative to time 0: 1.118 and 0.828 and 0.627 and 1.083 and 0.6712 and 0.9977 and 1.081 and 0.8535
[1]; time 18 min
  PF-EPSC amplitude relative to time 0: 1.106 and 0.9208 and 0.5918 and 1.166 and 0.7081 and 1.026 and 1.038 and 0.9503
[1]; time 19 min
  PF-EPSC amplitude relative to time 0: 1.038 and 0.7989 and 0.7251 and 1.08 and 0.721 and 0.8774 and 0.9331 and 0.9414
[1]; time 20 min
  PF-EPSC amplitude relative to time 0: 1.053 and 0.8133 and 0.2871 and 1.2251 and 0.7983 and 1.16 and 1.101 and 0.9444
[1]; time 21 min
  PF-EPSC amplitude relative to time 0: 1.169 and 0.7496 and 1.002 and 1.096 and 0.7681 and 0.9902 and 1.174 and 0.9728
[1]; time 22 min
  PF-EPSC amplitude relative to time 0: 1.26 and 0.9695 and 1.072 and 1.131 and 0.7557 and 1.075 and 1.029 and 0.936
[1]; time 23 min
  PF-EPSC amplitude relative to time 0: 1.263 and 0.7868 and 0.9511 and 1.11
[2]; [4]
  chemLTD: normalized PF-EPSC amplitude: 68 ± 5%
[2]; time 11 min
  PF-EPSC amplitude relative to time 0: 0.4686 and 0.63 and 0.9877 and 0.796 and 0.8663 and 0.8992 and 0.747 and 0.5935
[2]; time 12 min
  PF-EPSC amplitude relative to time 0: 0.5628 and 0.6446 and 0.9391 and 0.713 and 0.7198 and 0.9003 and 0.6921 and 0.7152
[2]; time 13 min
  PF-EPSC amplitude relative to time 0: 0.621 and 0.6377 and 0.8863 and 0.7092 and 0.7439 and 0.8712 and 0.699 and 0.7447
[2]; time 14 min
  PF-EPSC amplitude relative to time 0: 0.6095 and 0.6409 and 0.8383 and 0.7009 and 0.7151 and 0.836 and 0.6833 and 0.8191
[2]; time 15 min
  PF-EPSC amplitude relative to time 0: 0.6012 and 0.6741 and 0.9189 and 0.6721 and 0.6888 and 0.8836 and 0.7293 and 0.8645
[2]; time 16 min
  PF-EPSC amplitude relative to time 0: 0.5331 and 0.6806 and 0.916 and 0.7015 and 0.697 and 0.7978 and 0.7054 and 0.8737
[2]; time 17 min
  PF-EPSC amplitude relative to time 0: 0.5491 and 0.6542 and 0.8424 and 0.6962 and 0.6712 and 0.7371 and 0.6859 and 0.9232
[2]; time 18 min
  PF-EPSC amplitude relative to time 0: 0.5728 and 0.6898 and 0.851 and 0.7066 and 0.6167 and 0.9345 and 0.6617 and 0.9653
[2]; time 19 min
  PF-EPSC amplitude relative to time 0: 0.6147 and 0.6344 and 0.8403 and 0.7161 and 0.6281 and 0.877 and 0.663 and 0.9646
[2]; time 20 min
  PF-EPSC amplitude relative to time 0: 0.6536 and 0.6214 and 0.844 and 0.7068 and 0.6666 and 0.8676 and 0.6507 and 0.862
[2]; time 21 min
  PF-EPSC amplitude relative to time 0: 0.6234 and 0.6163 and 0.8161 and 0.7457 and 0.6988 and 0.7776 and 0.5996 and 0.8293
[2]; time 22 min
  PF-EPSC amplitude relative to time 0: 0.6625 and 0.6523 and 0.8492 and 0.7192 and 0.6537 and 0.814 and 0.6019 and 0.7969
[2]; time 23 min
  PF-EPSC amplitude relative to time 0: 0.703 and 0.6662 and 0.865 and 0.711
[3]; 1 μM Pd(sulfo-bpy), t = 31−35 min
  chemLTD: normalized PF-EPSC amplitude: 88 ± 7%
[3]; Time 11 min
  PF-EPSC amplitude normalized to time 0, individual Purkinje cells: 0.5479 and 0.8947 and 0.9287 and 0.866 and 0.7568 and 0.3484 and 0.5317
  PF-EPSC amplitude normalized to time 0, mean of cells: 0.6963
[3]; Time 12 min
  PF-EPSC amplitude normalized to time 0, individual Purkinje cells: 0.6486 and 0.7811 and 0.7919 and 0.9348 and 0.7682 and 0.482 and 0.6188
  PF-EPSC amplitude normalized to time 0, mean of cells: 0.7179
[3]; Time 13 min
  PF-EPSC amplitude normalized to time 0, individual Purkinje cells: 0.8009 and 0.7991 and 0.7966 and 0.9028 and 0.809 and 0.4767 and 0.682
  PF-EPSC amplitude normalized to time 0, mean of cells: 0.7525
[3]; Time 14 min
  PF-EPSC amplitude normalized to time 0, individual Purkinje cells: 0.8571 and 0.8119 and 0.8301 and 0.9359 and 0.8385 and 0.4849 and 0.6984
  PF-EPSC amplitude normalized to time 0, mean of cells: 0.7795
[3]; Time 15 min
  PF-EPSC amplitude normalized to time 0, individual Purkinje cells: 0.8756 and 0.8988 and 0.8051 and 0.8932 and 0.8452 and 0.5102 and 0.7309
  PF-EPSC amplitude normalized to time 0, mean of cells: 0.7942
[3]; Time 16 min
  PF-EPSC amplitude normalized to time 0, individual Purkinje cells: 0.9159 and 0.9928 and 0.8396 and 0.8655 and 0.841 and 0.5112 and 0.7755
  PF-EPSC amplitude normalized to time 0, mean of cells: 0.8202
[3]; Time 17 min
  PF-EPSC amplitude normalized to time 0, individual Purkinje cells: 0.9971 and 1.069 and 0.8238 and 0.8887 and 0.8439 and 0.5087 and 0.7457
  PF-EPSC amplitude normalized to time 0, mean of cells: 0.8396
[3]; Time 18 min
  PF-EPSC amplitude normalized to time 0, individual Purkinje cells: 1.0288 and 1.119 and 0.837 and 0.8899 and 0.9043 and 0.5561 and 0.7949
  PF-EPSC amplitude normalized to time 0, mean of cells: 0.8757
[3]; Time 19 min
  PF-EPSC amplitude normalized to time 0, individual Purkinje cells: 0.8877 and 1.0703 and 0.9503 and 0.893 and 0.9667 and 0.5652 and 0.7658
  PF-EPSC amplitude normalized to time 0, mean of cells: 0.8713
[3]; Time 20 min
  PF-EPSC amplitude normalized to time 0, individual Purkinje cells: 1.078 and 1.198 and 0.844 and 0.865 and 1.008 and 0.5754 and 0.7572
  PF-EPSC amplitude normalized to time 0, mean of cells: 0.9036
[3]; Time 21 min
  PF-EPSC amplitude normalized to time 0, individual Purkinje cells: 0.9655 and 1.126 and 0.8812 and 0.8773 and 1.052 and 0.5885 and 0.7582
  PF-EPSC amplitude normalized to time 0, mean of cells: 0.8926
[3]; Time 22 min
  PF-EPSC amplitude normalized to time 0, individual Purkinje cells: 1.0065 and 1.121 and 0.9135 and 0.8951 and 1.02 and 0.5416 and 0.8122
  PF-EPSC amplitude normalized to time 0, mean of cells: 0.9014
[3]; Time 23 min
  PF-EPSC amplitude normalized to time 0, individual Purkinje cells: 1.013 and 1.096 and 0.8837 and 0.8809 and 1.04 and 0.5776 and 0.8487
  PF-EPSC amplitude normalized to time 0, mean of cells: 0.9057
[3]; Time 24 min
  PF-EPSC amplitude normalized to time 0, individual Purkinje cells: 1.0609 and 0.96 and 0.924 and 0.9136 and 1.045 and 0.5613 and 0.9388
  PF-EPSC amplitude normalized to time 0, mean of cells: 0.9148
[3]; Time 25 min
  PF-EPSC amplitude normalized to time 0, individual Purkinje cells: 1.0868 and 0.9289
  PF-EPSC amplitude normalized to time 0, mean of cells: 0.9269
[3]; Time 26 min
  PF-EPSC amplitude normalized to time 0, mean of cells: 0.8953
[3]; Time 27 min
  PF-EPSC amplitude normalized to time 0, mean of cells: 0.9119
[3]; Time 28 min
  PF-EPSC amplitude normalized to time 0, mean of cells: 0.9459
[3]; Time 29 min
  PF-EPSC amplitude normalized to time 0, mean of cells: 0.9165
[3]; Time 30 min
  PF-EPSC amplitude normalized to time 0, mean of cells: 0.8807
[3]; Time 31 min
  PF-EPSC amplitude normalized to time 0, mean of cells: 0.8545
[3]; Time 32 min
  PF-EPSC amplitude normalized to time 0, mean of cells: 0.8798
[3]; Time 33 min
  PF-EPSC amplitude normalized to time 0, mean of cells: 0.8652
[3]; Time 34 min
  PF-EPSC amplitude normalized to time 0, mean of cells: 0.8955
[3]; Time 35 min
  PF-EPSC amplitude normalized to time 0, mean of cells: 0.9028
[3]; Time 36 min
  PF-EPSC amplitude normalized to time 0, mean of cells: 0.8988
[3]; Time 37 min
  PF-EPSC amplitude normalized to time 0, mean of cells: 0.876
